Assay: Solubility of sucralose in non-aqueous liquids
Format: physicochemical
Settings: 1,3-propanediol vs propylene glycol
Text: Therefore, beverage concentrates containing sucralose may be advantageously prepared using a solvent comprising 1,3-propanediol to provide a beverage concentrate that is able to maintain sucralose in solution throughout its shelf life. In other instances, selection of NAL may also depend, at least in part, on the flavor provided by the NAL and the desired taste profile in the final beverage. In yet other instances, selection of NAL may also depend, at least in part, on the viscosity and/or the desired density of the resulting concentrate.

OC[C@H]1O[C@H](O[C@]2(CCl)O[C@H](CCl)[C@@H](O)[C@@H]2O)[C@H](O)[C@@H](O)[C@H]1Cl [sucralose]
solubility in non-aqueous liquid: more readily solubilized in 1,3-propanediol than in propylene glycol

Source: patent US20130040036A1, “Shelf Stable, Low Water Liquid Beverage Concentrates And Methods Of Making The Same” (priority 2011, published 2013)
